Data published in patent US20080200460A1, “Chemical Compounds” (priority 2004, published 2008).

Biological target: recombinant human CCR5 receptor (Homo sapiens, UniProt P51681)
Experiment: in vitro radioligand binding assay: inhibition of binding of iodinated MIP-1α (scintillation proximity)
Settings: displacement of iodinated MIP-1α from membranes of Chinese hamster ovary cells expressing recombinant human CCR5; negative log10 of IC50; average if tested more than once
Method: The ability of compounds to inhibit the binding of MIP-1α was assessed by an in vitro radioligand binding assay. Membranes were prepared from Chinese hamster ovary cells which expressed the recombinant human CCR5 receptor. These membranes were incubated with […] iodinated MIP-1α, scintillation proximity beads and various concentrations of the compounds of the invention in 96-well plates. The amount of iodinated MIP-1α bound to the receptor was determined by scintillation counting. Competition curves were obtained for compounds and the concentration of compound which displaced 50% of bound iodinated MIP-1α was calculated (IC50).
Results from this test for certain compounds of the invention are presented in Table V. In Table V the results are presented as Pic50 values. A Pic50 value is the negative log (to base 10) of the IC50 result, so an IC50 of 1 μM (that is 1×10^−6M) gives a Pic50 of 6. If a compound was tested more than once then the data below is an average of the probative tests results.

Sequence of recombinant human CCR5 receptor (P51681 whole entry): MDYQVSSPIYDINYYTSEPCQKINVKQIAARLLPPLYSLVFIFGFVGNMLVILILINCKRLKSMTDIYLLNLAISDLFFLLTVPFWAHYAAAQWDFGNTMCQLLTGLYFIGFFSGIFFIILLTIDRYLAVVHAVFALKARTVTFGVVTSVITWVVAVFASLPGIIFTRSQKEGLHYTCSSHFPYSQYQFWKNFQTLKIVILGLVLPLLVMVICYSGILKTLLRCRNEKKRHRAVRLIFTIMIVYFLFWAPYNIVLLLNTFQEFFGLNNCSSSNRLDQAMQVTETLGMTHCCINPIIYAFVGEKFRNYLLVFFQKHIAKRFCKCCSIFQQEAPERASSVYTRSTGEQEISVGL

IC50 [nM] | Compound
0.794 | CCN(C(=O)CC1CCN(S(C)(=O)=O)CC1)C1CCN(CC[C@H](c2ccc(S(C)(=O)=O)cc2)c2cc(F)cc(F)c2)CC1 [Compound 1 Table III, N-(1-{(3R)-3-(3,5-difluorophenyl)-3-[4-(methylsulphonyl)phenyl]propyl}piperidin-4-yl)-N-ethyl-2-[1-(methylsulphonyl)piperidin-4-yl]acetamide]
0.316 | CCN(C(=O)NCC1CCN(S(C)(=O)=O)CC1)C1CCN(CC[C@H](c2ccc(S(C)(=O)=O)cc2)c2cc(F)cc(F)c2)CC1 [Compound 1 Table IV]
15.8 | CCN(C(=O)CC1CCOCC1)C1CCN(CC[C@H](c2ccc(S(C)(=O)=O)cc2)c2cc(F)cc(F)c2)CC1 [Compound 2 Table III, N-(1-{(3R)-3-(3,5-difluorophenyl)-3-[4-(methylsulphonyl)phenyl]propyl}piperidin-4-yl)-N-ethyl-2-(tetrahydro-2H-pyran-4-yl)acetamide]
3.16 | CCN(C(=O)CN1CCN(S(C)(=O)=O)CC1)C1CCN(CC[C@@H](c2cc(F)cc(F)c2)C2CCN(S(C)(=O)=O)CC2)CC1 [Compound 5 Table I, N-(1-{(3R)-3-(3,5-difluorophenyl)-3-[1-(methylsulfonyl)piperidin-4-yl]propyl}piperidin-4-yl)-N-ethyl-2-[4-(methylsulfonyl)piperazin-1-yl]acetamide]
0.316 | C=CCN(C(=O)CC1CCN(S(C)(=O)=O)CC1)C1CCN(CC[C@@H](c2cc(F)cc(F)c2)C2CCN(S(C)(=O)=O)CC2)CC1 [Compound 7 Table I, N-allyl-N-(1-{(3R)-3-(3,5-difluorophenyl)-3-[1-(methylsulfonyl)piperidin-4-yl]propyl}piperidin-4-yl)-2-[1-(methylsulfonyl)piperidin-4-yl]acetamide]
